Measured values as given in patent publication US4540705A, “Antidepressant imidazolines and related compounds” (priority 1983, dated 1985).
Read-outs that look alike come from different tables or passages of the source. Each block holds one compound with its values, some of them ahead of it.

Experiments:
[1] = molecular target: T1, α2 -adrenergic, isolated rat vas deferens (Rattus norvegicus, UniProt P22909); assay: Vas Deferens Assay: antagonism of clonidine-induced inhibition of twitch height; assay type: biochemical
T1 construct: isolated, electrically stimulated rat vas deferens; from tissue; host or cells: isolated rat vas deferens
T1 sequence (P22909 1-465): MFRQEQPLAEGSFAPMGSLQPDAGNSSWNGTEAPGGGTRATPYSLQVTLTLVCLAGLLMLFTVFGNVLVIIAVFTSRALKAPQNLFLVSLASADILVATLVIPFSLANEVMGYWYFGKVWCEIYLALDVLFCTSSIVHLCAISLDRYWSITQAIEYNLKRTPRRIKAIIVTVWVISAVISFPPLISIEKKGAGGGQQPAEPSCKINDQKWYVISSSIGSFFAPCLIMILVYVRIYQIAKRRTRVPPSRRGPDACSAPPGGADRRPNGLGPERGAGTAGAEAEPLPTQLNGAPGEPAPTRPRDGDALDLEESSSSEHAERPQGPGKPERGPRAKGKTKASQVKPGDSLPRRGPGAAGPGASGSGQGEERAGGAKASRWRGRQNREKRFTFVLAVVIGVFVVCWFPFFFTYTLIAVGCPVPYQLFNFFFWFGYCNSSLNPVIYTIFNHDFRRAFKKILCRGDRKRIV
Experimental: (§1) The α2 -adrenergic antagonist activity is measured by three screening methods, described as follows:
Activity is determined by assessing the ability of compounds to antagonize the inhibition of twitch height induced by clonidine in the isolated, electrically stimulated rat vas deferens. […] The tissue is then rinsed to remove clonidine and, when the twitch height has returned to normal, the test compound is added. The ability of clonidine to inhibit twitch height is then again determined, and the clonidine-induced inhibition in the presence of the test compound is used to calculate percent antagonism of clonidine. Results are recorded in terms of percent inhibition at the concentration of antagonist used, or as pA2 values, determined by the Schild method; cf. Tallarida and Murray, Manual of Pharmacologic Calculations, pp. 29-32 (Springer-Verlag, 1981).

[2] = system: mice (α2 -adrenergic antagonism of clonidine); assay: In vivo Antagonism of Clonidine-induced Anti-nociception (phenyl-p-quinone writhing); conditions: Mus musculus; for ED50: read-out: Antagonism of Clonidine Analgesia ED50 -p.o.
Experimental: as §1
(3) In vivo Antagonism of Clonidine-induced Anti-nociception
The intraperitoneal administration of phenyl-p-quinone (PPQ) to mice elicits a nociceptive response which consists of abdominal writhing and extension of the hind limbs. This writhing response is prevented in mice treated with clonidine. When an α2 -adrenergic antagonist is given prior to clonidine, the mice display the writhing response when PPQ is administered. To groups of thirty male mice for each experiment the test compound dissolved in 0.9% sodium chloride was administered either subcutaneously or orally. Clonidine (0.2 mg/kg) was administered orally when the test compound was given subcutaneously and subcutaneously when the test compound was administered orally. Twenty minutes after the administration of clonidine, PPQ (3 mg/kg) was given intraperitoneally. […] The number of mice that writhed at least three times during the five minute observation period was counted. The number of mice that writhed was scored for each dose of antagonist, and the percentage reversal of clonidine-induced anti-nociception (analgesia) was calculated by dividing the number of animals writhing by the total number of test animals and multiplying the quotient by 100.

[3] = molecular target: T2, α2 -adrenergic binding sites (receptor) (Rattus norvegicus, UniProt P22909); assay: Tritiated Clonidine Receptor Binding Assay; conditions: for inhibition at 1 µM: at 1000 nM, read-out: Clonidine [^3 H] Binding % I.
T2 construct: to displace ^3 H-clonidine (an α2 -adrenergic agonist) from membranes of rat brain; from tissue; host or cells: rat cerebral cortex homogenate (membranes)
T2 sequence (P22909 1-465): T1 sequence (P22909 1-465)
Experimental: as §1
(1) Tritiated Clonidine Receptor Binding Assay
Affinity is determined by assessing the ability of compounds to displace ^3 H-clonidine (an α2 -adrenergic agonist) from membranes of rat brain. Homogenates of rat cerebral cortex are incubated with 0.4 nM ^3 H-clonidine which binds to the α2 -adrenergic binding sites (receptor) present on the membranes of the homogenate. Compounds that bind to the α2 -adrenergic receptor, when added to the incubation mixture, will displace ^3 H-clonidine from its binding site, thereby diminishing the amount of bound radioactivity. The amount of ^3 H-clonidine still bound is quantitated by liquid scintillation spectrometry. The results are determined in terms of percent inhibition or as Ki values. Ki is a measure of the apparent affinity of the test substance for the α2 -adrenergic binding site, as determined by the method of Cheng and Prusoff, Biochemical Pharmacology 22, 3099 (1973).

α2 -adrenergic [4] = assay: α2 -adrenergic antagonist activity (general statement)
Experimental: On the other hand, the sympathomimetic activity characteristic of the latter group of compounds is not present in the compounds of the present invention.
The α2 -adrenergic antagonist activity is measured by three screening methods, described as follows: […]

male rats = assay: Diuretic activity in male rats in comparison with hydrochlorothiazide; assay type: in vivo, rat
mice = assay: Prevention of tetrabenazine-induced ptosis in mice; assay type: in vivo; conditions: Mus musculus, read-out: Tetrabenazine Reversal ED50
Text: A further measure of potential andidepressant activity was obtained by determining the effectiveness of the compounds of the invention in prevention of tetrabenazine-induced ptosis in mice by the method described by Barnett et al., Int. J. Neuropharmacol. 8, 353-360 (1969). The results were expressed in terms of ED50 values (effective dose in 50% of the animals).

α2 -adrenergic [5] = conditions: prior-art compounds; cited from earlier work
[6] = rat, at 500 nM, clonidine 10 nM
[7] = sc, 100 mg/kg s.c., read-out: Antagonism of Clonidine Analgesia % A.
[8] = 0.4 nM ^3 H-clonidine, rat cerebral cortex homogenate
[9] = Schild method, clonidine 10 nM, read-out: Rat Vas Deferens pA2 (converted)
[10] = sc, 30 mg/kg s.c., read-out: Antagonism of Clonidine Analgesia % A.
[11] = 0.4 nM ^3 H-clonidine, rat cerebral cortex homogenate, read-out: Clonidine [^3 H] Binding Ki
[12] = po, 100 mg/kg p.o., read-out: Antagonism of Clonidine Analgesia % A.

Rat Vas Deferens % A. ([1]; at 500 nM, clonidine 10 nM, 0.5 µM): 3% | inhibition at 0.5 µM [1, 6]: 2% | inhibition at 1 µM [3, 8]: 60%
Compound: CC1=C(CC2=NCCN2C)CCc2ccccc21 [4(b), 2-[(3,4-Dihydro-1-methyl-2-naphthalenyl)methyl]-4,5-dihydro-1-methyl-1H-imidazole]
responders at 100 mg/kg [2, 7]: 20%

Kb [1, 9]: 120 nM | Ki [3, 11]: 88 nM
Compound: CC1=C(Cc2ncc[nH]2)CCc2ccccc21 [Example 11, 2-[(3,4-Dihydro-1-methyl-2-naphthalenyl)methyl]-1H-imidazole]
responders at 30 mg/kg [2, 10]: 60%

Compound: CC1=C(CC2=NCC(C)(C)CN2)CCc2ccccc21 [Example 12, 2-[(3,4-Dihydro-1-methyl-2-naphthalenyl)methyl]-1,4,5,6-tetrahydro-5,5-dimethylpyrimidine]
α2 -adrenergic antagonist activity (in words) (α2 -adrenergic [4]): apparently devoid of any significant α2 -adrenergic antagonist properties | increase of sodium excretion, activity relative to hydrochlorothiazide (male rats; 30 mg/kg oral): 38% | increase of sodium excretion, activity relative to hydrochlorothiazide (male rats; 100 mg/kg oral): 94% | diuretic activity (in words) (male rats; in comparison with hydrochlorothiazide): found to possess diuretic activity

Kb [1, 9]: 63.1 nM | Ki [3, 11]: 11.9 nM
Compound: CC1=C(CC2=NCCN2)CCc2ccccc21 [1(b), 2-[(3,4-Dihydro-1-methyl-2-naphthalenyl)methyl]-4,5-dihydro-1H-imidazole]
ED50 (mice): 18 mg/kg | responders at 100 mg/kg [2, 12]: 50% | ED50 ([2]; po): 111 mg/kg

Compound: c1ccc2c(c1)CCCC2C1=NCCN1 (stereo not shown) [tetrahydrozoline, 2-(1,2,3,4-tetrahydro-1-naphthyl)-2-imidazoline, reference compound]
α2 -adrenergic antagonist activity (in words) (α2 -adrenergic [4]): essentially devoid of such activity | α2 -adrenergic antagonist activity (in words, background section) (α2 -adrenergic [5]): do not possess α2 -adrenergic antagonist activity

Kb [1, 9]: 17.4 nM | Ki [3, 11]: 28 nM
Compound: C1=C(CC2=NCCN2)CCc2ccccc21 [Example 2(b), 2-[(3,4-Dihydro-2-naphthalenyl)methyl]-4,5-dihydro-1H-imidazole]
ED50 (mice): 284 mg/kg | ED50 ([2]; po): 33 mg/kg | responders at 100 mg/kg [2, 7]: 90%

Compound: c1ccc2cc(CC3=NCCN3)ccc2c1 [Example 18, 4,5-Dihydro-2-(2-naphthalenylmethyl)-1H-imidazole]
ED50 (mice): 27 mg/kg | Kb [1]: 21.4 nM | responders at 100 mg/kg [2, 12]: 80% | ED50 ([2]; po): 53 mg/kg | Ki [3]: 48 nM

inhibition at 0.5 µM [1, 6]: 2% | Ki [3, 11]: 548 nM
Compound: CCN1CCN=C1CC1=C(C)c2ccccc2CC1 [Example 5, 2-[(3,4-Dihydro-1-methyl-2-naphthalenyl)methyl]-1-ethyl-4,5-dihydro-1H-imidazole]
responders at 100 mg/kg [2, 7]: 20%

inhibition at 0.5 µM [1, 6]: 1% | inhibition at 1 µM [3, 8]: 53%
Compound: COc1ccc2c(c1)CCC(CC1=NCCN1)=C2C [8(b), 2-[(3,4-Dihydro-6-methoxy-1-methyl-2-naphthalenyl)methyl]-4,5-dihydro-1H-imidazole]

Ki [3, 11]: 334 nM
Compound: CC1=C(CC2=NCCCN2)CCc2ccccc21 [Example 3, 2-[(3,4-Dihydro-1-methyl-2-naphthalenyl)methyl]-1,4,5,6-tetrahydropyrimidine]

Kb [1, 9]: 37.2 nM | Ki [3, 11]: 32 nM
Compound: CC(C1=Cc2ccccc2CC1)C1=NCCN1 (stereo not shown) [7(b), 2-[1-(3,4-Dihydro-2-naphthalenyl)ethyl]-4,5-dihydro-1H-imidazole]
responders at 30 mg/kg [2, 10]: 70%

inhibition at 0.001 µM ([1]; rat, at 1 (head: Conc. (nM)), clonidine 10 nM): 3% | inhibition at 1 µM [3, 8]: 59%
Compound: CC1=C(CC2=NC(C)CN2)CCc2ccccc21 (stereo not shown) [Example 6, 2-[(3,4-Dihydro-1-methyl-2-naphthalenyl)methyl]-4,5-dihydro-4-methyl-1H-imidazole]
responders at 100 mg/kg [2, 7]: 20%

Kb [1, 9]: 19.5 nM | Ki [3, 11]: 7 nM
Compound: CC1=C(CC2=NCCN2)Cc2ccccc21 [9(b), 4,5-Dihydro-2-[(3-methyl-1H-inden-2-yl)methyl]-1H-imidazole]
responders at 30 mg/kg ([2]; po, 30 mg/kg p.o., read-out: Antagonism of Clonidine Analgesia % A.): 10%

Compound: Cc1c(CC2=NCCN2)ccc2ccccc12 [17(e), 4,5-Dihydro-2-[(1-methyl-2-naphthalenyl)methyl]-1H-imidazole]
ED50 (mice): 3 mg/kg | Kb [1, 9]: 44.7 nM | ED50 ([2]; po): 27 mg/kg | responders at 100 mg/kg [2, 7]: 70% | Ki [3, 11]: 7 nM

Kb [1, 9]: 64.6 nM | Ki [3, 11]: 76 nM
Compound: C1=C(CC2=NCCN2)Cc2ccccc21 [10(b), 4,5-Dihydro-2-[(1H-inden-2-yl)methyl]-1H-imidazole]
responders at 10 mg/kg ([2]; sc, 10 mg/kg s.c., read-out: Antagonism of Clonidine Analgesia % A.): 70%

Ki [3, 11]: 401 nM
Compound: C[C@@H]1c2ccccc2CC[C@H]1CC1=NCCN1 (relative stereo) [15(d), trans-4,5-Dihydro-2-[(1,2,3,4-tetrahydro-1-methyl-2-naphthalenyl)methyl]-1H-imidazole]
responders at 100 mg/kg [2, 7]: 30%

Kb [1, 9]: 60.3 nM | Ki [3, 11]: 135 nM
Compound: C[C@@H]1c2ccccc2CC[C@@H]1CC1=NCCN1 (relative stereo) [Example 16, cis-4,5-Dihydro-2-[(1,2,3,4-tetrahydro-1-methyl-2-naphthalenyl)methyl]-1H-imidazole]
